# According to ChEMBL document CHEMBL1201861, “Genomics of Drug Sensitity in Cancer screening data, Wellcome Trust Sanger Institute”:
# How the values were obtained:
# Test in all cases: cells
# Type in all cases: functional, cell-based, Homo sapiens
# COLO-829 = conditions: Homo sapiens, COLO-829
# Description: SANGER: Inhibition of human COLO-829 cell growth in a cell viability assay.
# DB = conditions: Homo sapiens, DB
# Description: SANGER: Inhibition of human DB cell growth in a cell viability assay.
# DEL = conditions: Homo sapiens, DEL;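 also: growth inhibition of the human DEL cell line, read out with a cell viability assay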
# Description: SANGER: Inhibition of human DEL cell growth in a cell viability assay.
# DOHH-2 = conditions: Homo sapiens, DOHH-2;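 also: growth inhibition of human DOHH-2 cells, read out with a cell viability assay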
# Description: SANGER: Inhibition of human DOHH-2 cell growth in a cell viability assay.
# EC-GI-10 = conditions: Homo sapiens, EC-GI-10
# Description: SANGER: Inhibition of human EC-GI-10 cell growth in a cell viability assay.
# EKVX = conditions: Homo sapiens, EKVX;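 also: growth inhibition of human EKVX cells, read out with a cell viability assay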
# Description: SANGER: Inhibition of human EKVX cell growth in a cell viability assay.
# ES4 = conditions: Homo sapiens, ES4;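 also: growth inhibition of human ES4 cells, read out by a cell viability assay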
# Description: SANGER: Inhibition of human ES4 cell growth in a cell viability assay.
# EW-18 = conditions: Homo sapiens, EW-18;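 also: growth inhibition of EW-18 cells, read out by a cell viability assay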
# Description: SANGER: Inhibition of human EW-18 cell growth in a cell viability assay.
# EW-24 = conditions: Homo sapiens, EW-24;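 also: human EW-24 cancer cell line, growth inhibition read out via a cell viability assay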
# Description: SANGER: Inhibition of human EW-24 cell growth in a cell viability assay.
# GR-ST = conditions: Homo sapiens, GR-ST
# Description: SANGER: Inhibition of human GR-ST cell growth in a cell viability assay.
# HCC1187 = conditions: Homo sapiens, HCC1187;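 also: growth inhibition of HCC1187 cells, read out with a cell viability assay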
# Description: SANGER: Inhibition of human HCC1187 cell growth in a cell viability assay.
# HCC2218 = conditions: Homo sapiens, HCC2218;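 also: cell viability assay read-out, with IC50 given as the concentration that inhibits growth of the cell line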
# Description: SANGER: Inhibition of human HCC2218 cell growth in a cell viability assay.
# HT-144 = conditions: Homo sapiens, HT-144
# Description: SANGER: Inhibition of human HT-144 cell growth in a cell viability assay.
# IST-SL1 = conditions: Homo sapiens, IST-SL1;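 also: growth inhibition of human IST-SL1 cells, read out with a cell viability assay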
# Description: SANGER: Inhibition of human IST-SL1 cell growth in a cell viability assay.
# J-RT3-T3-5 = conditions: Homo sapiens, J-RT3-T3-5;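 also: cell viability assay measuring growth inhibition of human J-RT3-T3-5 cells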
# Description: SANGER: Inhibition of human J-RT3-T3-5 cell growth in a cell viability assay.
# JVM-3 = conditions: Homo sapiens, JVM-3;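 also: growth inhibition of human JVM-3 cells, read out with a cell viability assay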
# Description: SANGER: Inhibition of human JVM-3 cell growth in a cell viability assay.
# KALS-1 = conditions: Homo sapiens, KALS-1;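 also: growth inhibition of KALS-1 cells, determined with a cell viability assay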
# Description: SANGER: Inhibition of human KALS-1 cell growth in a cell viability assay.
# KARPAS-45 = conditions: Homo sapiens, KARPAS-45;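 also: inhibition of cell line growth, read out through a viability assay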
# Description: SANGER: Inhibition of human KARPAS-45 cell growth in a cell viability assay.
# KE-37 = conditions: Homo sapiens, KE-37;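 also: growth inhibition of KE-37 cells, read out with a cell viability assay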
# Description: SANGER: Inhibition of human KE-37 cell growth in a cell viability assay.
# KGN = conditions: Homo sapiens, KGN;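 also: growth inhibition of KGN cells, read out with a cell viability assay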
# Description: SANGER: Inhibition of human KGN cell growth in a cell viability assay.
# KINGS-1 = conditions: Homo sapiens, KINGS-1;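 also: cell viability assay measuring suppression of KINGS-1 cell growth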
# Description: SANGER: Inhibition of human KINGS-1 cell growth in a cell viability assay.
# LB373-MEL-D = conditions: Homo sapiens, LB373-MEL-D;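 also: growth inhibition of the cell line, read out in a cell viability assay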
# Description: SANGER: Inhibition of human LB373-MEL-D cell growth in a cell viability assay.
# LS-1034 = conditions: Homo sapiens, LS-1034
# Description: SANGER: Inhibition of human LS-1034 cell growth in a cell viability assay.
# MFH-ino = conditions: Homo sapiens, MFH-ino;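 also: growth inhibition of human MFH-ino cells, read out by a cell viability assay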
# Description: SANGER: Inhibition of human MFH-ino cell growth in a cell viability assay.
# MMAC-SF = conditions: Homo sapiens, MMAC-SF;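 also: growth inhibition of human MMAC-SF cells, read out with a cell viability assay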
# Description: SANGER: Inhibition of human MMAC-SF cell growth in a cell viability assay.
# MN-60 = conditions: Homo sapiens, MN-60;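 also: growth inhibition of the MN-60 cell line, determined with a cell viability assay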
# Description: SANGER: Inhibition of human MN-60 cell growth in a cell viability assay.
# MOLT-16 = conditions: Homo sapiens, MOLT-16;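 also: growth inhibition of human MOLT-16 cells, read out with a cell viability assay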
# Description: SANGER: Inhibition of human MOLT-16 cell growth in a cell viability assay.
# NB5 = conditions: Homo sapiens, NB5;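 also: growth inhibition of NB5 cells, read out as cell viability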
# Description: SANGER: Inhibition of human NB5 cell growth in a cell viability assay.
# NCI-H1355 = conditions: Homo sapiens, NCI-H1355;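 also: growth inhibition of human NCI-H1355 cells, read out by a cell viability assay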
# Description: SANGER: Inhibition of human NCI-H1355 cell growth in a cell viability assay.
# NCI-H1581 = conditions: Homo sapiens, NCI-H1581;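 also: cell growth inhibition read out by a viability assay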
# Description: SANGER: Inhibition of human NCI-H1581 cell growth in a cell viability assay.
# NCI-H1648 = conditions: Homo sapiens, NCI-H1648;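 also: cell viability assay measuring inhibition of NCI-H1648 cell growth, from the Sanger screening data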
# Description: SANGER: Inhibition of human NCI-H1648 cell growth in a cell viability assay.
# SNU1 = conditions: Homo sapiens, SNU1;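 also: growth inhibition of human NCI-SNU-1 cells, measured with a cell viability assay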
# Description: SANGER: Inhibition of human NCI-SNU-1 cell growth in a cell viability assay.
# NOMO-1 = conditions: Homo sapiens, NOMO-1;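 also: growth inhibition of human NOMO-1 cells measured by a cell viability assay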
# Description: SANGER: Inhibition of human NOMO-1 cell growth in a cell viability assay.
# RH-1 = conditions: Homo sapiens, RH-1;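 also: growth inhibition of human RH-1 cells, read out with a cell viability assay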
# Description: SANGER: Inhibition of human RH-1 cell growth in a cell viability assay.
# RKO = conditions: Homo sapiens, RKO;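 also: growth inhibition of human RKO cells, read out with a cell viability assay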
# Description: SANGER: Inhibition of human RKO cell growth in a cell viability assay.
# RXF 393 = conditions: Homo sapiens, RXF 393;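 also: growth inhibition of human RXF 393 cells, read out with a cell viability assay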
# Description: SANGER: Inhibition of human RXF393 cell growth in a cell viability assay.
# Ramos-2G6-4C10 = conditions: Homo sapiens, Ramos-2G6-4C10;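 also: growth inhibition of the cell line, measured by a cell viability read-out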
# Description: SANGER: Inhibition of human Ramos-2G6-4C10 cell growth in a cell viability assay.
# SF-268 = conditions: Homo sapiens, SF-268;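 also: growth inhibition of SF-268 cells determined with a cell viability assay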
# Description: SANGER: Inhibition of human SF268 cell growth in a cell viability assay.
# SNB-75 = conditions: Homo sapiens, SNB-75;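 also: cell viability assay measuring growth inhibition of human SNB-75 cells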
# Description: SANGER: Inhibition of human SNB75 cell growth in a cell viability assay.
# SW684 = conditions: Homo sapiens, SW684;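 also: growth inhibition of human SW684 cells, measured by a cell viability assay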
# Description: SANGER: Inhibition of human SW684 cell growth in a cell viability assay.
# A101D = conditions: Homo sapiens, A101D;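 also: growth inhibition of the cell line, measured with a viability assay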
# Description: SANGER: Inhibition of human A101D cell growth in a cell viability assay.
# A253 cell line = conditions: Homo sapiens, A253;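 also: growth inhibition of A253 cells, read out with a cell viability assay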
# Description: SANGER: Inhibition of human A253 cell growth in a cell viability assay.
# A704 = conditions: Homo sapiens, A704;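 also: growth inhibition of human A704 cells, read out with a cell viability assay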
# Description: SANGER: Inhibition of human A704 cell growth in a cell viability assay.
# BB30-HNC = conditions: Homo sapiens, BB30-HNC;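 also: growth inhibition of the cultured cell line, read out by a cell viability assay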
# Description: SANGER: Inhibition of human BB30-HNC cell growth in a cell viability assay.
# C2BBe1 = conditions: Homo sapiens, C2BBe1;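 also: growth inhibition of C2BBe1 cells, read out through a viability assay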
# Description: SANGER: Inhibition of human C2BBe1 cell growth in a cell viability assay.
# no-10 = conditions: Homo sapiens;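 also: growth inhibition of no-10 cells, read out with a cell viability assay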
# Description: SANGER: Inhibition of human no-10 cell growth in a cell viability assay.
# CCRF-CEM = conditions: Homo sapiens, CCRF-CEM;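 also: inhibition of CCRF-CEM cell growth, measured by a cell viability assay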
# Description: SANGER: Inhibition of human CCRF-CEM cell growth in a cell viability assay.
# COLO-320-HSR = conditions: Homo sapiens, COLO-320-HSR;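 also: growth inhibition of COLO-320-HSR cells, determined with a cell viability assay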
# Description: SANGER: Inhibition of human COLO-320-HSR cell growth in a cell viability assay.
smiles,measurement,setting,value
Cc1ccc(-c2c(C(=O)CCl)n(CCCO)c3ncnc(N)c23)cc1,IC50,COLO-829,> 4000 nM
same,IC50,DB,> 4000 nM
same,IC50,DEL,> 4000 nM
same,IC50,DOHH-2,2700 nM
same,IC50,EC-GI-10,> 4000 nM
same,IC50,EKVX,> 4000 nM
same,IC50,ES4,> 4000 nM
same,IC50,EW-18,> 4000 nM
same,IC50,EW-24,> 4000 nM
same,IC50,GR-ST,> 4000 nM
same,IC50,HCC1187,> 4000 nM
same,IC50,HCC2218,> 4000 nM
same,IC50,HT-144,3280 nM
same,IC50,IST-SL1,> 4000 nM
same,IC50,J-RT3-T3-5,> 4000 nM
same,IC50,JVM-3,> 4000 nM
same,IC50,KALS-1,> 4000 nM
same,IC50,KARPAS-45,> 4000 nM
same,IC50,KE-37,> 4000 nM
same,IC50,KGN,> 4000 nM
same,IC50,KINGS-1,> 4000 nM
same,IC50,LB373-MEL-D,> 4000 nM
same,IC50,LS-1034,> 4000 nM
same,IC50,MFH-ino,> 4000 nM
same,IC50,MMAC-SF,> 4000 nM
same,IC50,MN-60,> 4000 nM
same,IC50,MOLT-16,> 4000 nM
same,IC50,NB5,> 4000 nM
same,IC50,NCI-H1355,> 4000 nM
same,IC50,NCI-H1581,> 4000 nM
same,IC50,NCI-H1648,> 4000 nM
same,IC50,SNU1,> 4000 nM
same,IC50,NOMO-1,> 4000 nM
same,IC50,RH-1,> 4000 nM
same,IC50,RKO,> 4000 nM
same,IC50,RXF 393,> 4000 nM
same,IC50,Ramos-2G6-4C10,> 4000 nM
same,IC50,SF-268,> 4000 nM
same,IC50,SNB-75,> 4000 nM
same,IC50,SW684,> 4000 nM
same,IC50,A101D,3830 nM
same,IC50,A253 cell line,> 4000 nM
same,IC50,A704,> 4000 nM
same,IC50,BB30-HNC,1820 nM
same,IC50,C2BBe1,2740 nM
same,IC50,no-10,> 4000 nM
same,IC50,CCRF-CEM,2930 nM
same,IC50,COLO-320-HSR,> 4000 nM
OCCCNc1cc(-c2ccnc(Nc3cccc(Cl)c3)n2)ccn1,IC50,COLO-829,> 256 nM
same,IC50,DB,138 nM
same,IC50,DEL,25.8 nM
same,IC50,DOHH-2,40.8 nM
same,IC50,EC-GI-10,> 256 nM
same,IC50,EKVX,> 256 nM
same,IC50,ES4,35.1 nM
same,IC50,EW-18,> 256 nM
same,IC50,EW-24,> 256 nM
same,IC50,GR-ST,174 nM
same,IC50,HCC1187,> 256 nM
same,IC50,HCC2218,> 256 nM
same,IC50,HT-144,20.6 nM
same,IC50,IST-SL1,147 nM
same,IC50,J-RT3-T3-5,83.2 nM
same,IC50,JVM-3,> 256 nM
same,IC50,KALS-1,35.3 nM
same,IC50,KARPAS-45,104 nM
same,IC50,KE-37,81.8 nM
same,IC50,KGN,10.5 nM
same,IC50,KINGS-1,103 nM
same,IC50,LB373-MEL-D,209 nM
same,IC50,LS-1034,255 nM
same,IC50,MFH-ino,80.7 nM
same,IC50,MMAC-SF,> 256 nM
same,IC50,MN-60,149 nM
same,IC50,MOLT-16,> 256 nM
same,IC50,NB5,> 256 nM
same,IC50,NCI-H1355,24.9 nM
same,IC50,NCI-H1581,> 256 nM
same,IC50,NCI-H1648,189 nM
same,IC50,SNU1,> 256 nM
same,IC50,NOMO-1,> 256 nM
same,IC50,RH-1,> 256 nM
same,IC50,RKO,114 nM
same,IC50,RXF 393,37 nM
same,IC50,Ramos-2G6-4C10,59.3 nM
same,IC50,SF-268,42.2 nM
same,IC50,SNB-75,27.8 nM
same,IC50,SW684,> 256 nM
same,IC50,A101D,20.5 nM
same,IC50,A253 cell line,64.9 nM
same,IC50,A704,> 256 nM
same,IC50,BB30-HNC,52.5 nM
same,IC50,C2BBe1,154 nM
same,IC50,no-10,14.8 nM
same,IC50,CCRF-CEM,47 nM
same,IC50,COLO-320-HSR,82.9 nM
